The record followed here is patent US20190175685A1, “METHODS OF TREATING AND PREVENTING CANCER TREATMENT SIDE EFFECTS” (FILAMENT BIOSOLUTIONS INC., priority 2016, published 2019).

Series [1] relates to small intestinal crypt survival and regeneration. Nature of the series: Intestinal crypt survival after irradiation in a murine model. It is filed as in vivo, mice. Particulars: for number of surviving and regenerating crypts, pre-irradiation treatment versus treatment concurrent with radiation: oral twice daily 0.2 ml, day -5 to +4 compared with day 0 to +4, 13 Gy on day 0, scored day 4 post-irradiation. An excerpt: In this example irradiation was used to target the proliferating clonogenic cells of the crypt. Following irradiation, crypt cells can become impaired and undergo apoptosis, or programmed cell death, resulting in a reduction in the number of viable crypts, which could regenerate and heal the intestinal tissue. The more crypts that are lost the greater the level of ulceration, which can manifest as the symptoms of mucositis. […] This model of crypt cell survival is therefore often used as a surrogate for manifestation of mucositis, e.g., oral mucositis.
In this example the efficacy of orally administered Alanyl-Glutamine (Ala-Gln) and Glutamine (Gln) on small intestinal crypt survival and regeneration and maintenance of villus structure was assessed in response to radiation insult in a murine model. The crypt cells were measured at 4 days post high-dose irradiation, a time at which crypt cells affected by radiation have died and surviving cells begin to regenerate. The level of crypt cell survival at this time directly correlates to severity of ulceration and ultimately animal survival.
Ala-Gln and Gin were administered orally twice daily at a volume of 0.2 ml either pre- and post-irradiation (day −5 to day 4), or post-irradiation alone (day 0 to day 4). The animals were given doses of Ala-Gln at a concentration of 39.65 mg/ml and Gln at a concentration of 26.75 mg/ml, which contain molar equivalent doses of Gin. Vehicle control animals were administered 0.2 ml of water orally twice daily.
Animals were irradiated on day 0 at 3 pm. Irradiation was performed using an XStrahl RS320 X-ray set, operated at 300 Kv, 10 Ma. Radiation was delivered at a dose rate of 0.832 Gy/min using a single uniform dose of 13 Gy radiation. A dosimetry device was placed in the irradiation chamber to confirm the dose received. […]
For each animal in the study, ten intestinal circumferences were analyzed, providing a total of 80 circumferences per treatment group available for analysis. The number of surviving and regenerating crypts per circumference was scored and the average per group was determined.

Series [2] in a line: Plasma glutamine levels after a single oral gavage dose in rats. It is filed as in vivo, male Sprague Dawley rats. The note with it: for change in plasma glutamine levels versus pre-dose: high, medium and low dose, 3 to 540 minutes after dose, UHPLC/MS/MS. The method, then:
Alanyl-Glutamine and glutamine were administered as a single dose by oral gavage, with deionized water as the vehicle, into male Sprague Dawley rats. The oral gavage of Alanyl-Glutamine and glutamine was administered to different groups at three distinct levels, a high, medium and low dose. Each dose level contained molar equivalent amounts of Glutamine (doses selected to correspond to relevant human doses) so that the resulting changes in plasma Glutamine levels could be directly compared in vivo. The concurrent control group received the vehicle (deionized water) by oral gavage. The dose volume was 20 ml/kg for the oral gavage. Each treatment group consisted of three males. For pharmacokinetic evaluation, blood samples were collected via a jugular vein cannula (JVC) from 3 animals/group/time point prior to dose administration and at 3, 10, 20, 40, 60, 90, 180, 360, and 540 minutes after dose administration. Each sample was analyzed to determine plasma glutamine concentration using a qualified ultra-high performance liquid chromatography mass spectrometry method (UHPLC/MS/MS), developed expressly for the determination of glutamine levels in rat plasma. A subtractive analysis of the plasma levels was then performed, in which the data from each individual animal was subtracted from their pre-dose plasma glutamine levels. The resulting data-points were then averaged for each dosing group and graphed, and represent the change in plasma glutamine after administration of the two different compositions.

Molecules are shown by their SMILES. “Also recorded” adds a separate entry of the source. Residues, ends and D or L forms follow the SMILES beside them.

Regarding `C[C@H](N)C(=O)N[C@@H](CCC(N)=O)C(=O)O` [Alanyl-Glutamine, L-alanyl-L-glutamine] (H-Ala-Gln-OH), the “average number of crypts, Ala-Gln versus Gln” value in series [1] (groups treated pre-irradiation (-5 to +4), molar equivalent doses of Gln, 13 Gy, scored day 4) is listed as “higher average number of crypts”. Also, the “number of surviving and regenerating crypts, pre-irradiation treatment versus treatment concurrent with radiation” value in series [1] is “significantly more crypts”. For the same compound, the “plasma glutamine levels, Alanyl-Glutamine versus glutamine at equivalent molar doses” value in series [2] (each of three dose levels (high, middle, low)) is given as “higher plasma glutamine levels at each dose; also recorded: increased more”. Further, in series [2], the “change in plasma glutamine levels versus pre-dose” value is recorded as “increase in glutamine levels in the plasma at all dose levels”.
`NC(=O)CC[C@H](N)C(=O)O` [glutamine, reference compound]: the “number of surviving and regenerating crypts, pre-irradiation treatment versus treatment concurrent with radiation” value in series [1] was “significantly more crypts”. Besides, in series [2], the “change in plasma glutamine levels versus pre-dose” value is listed as “increase in glutamine levels in the plasma at all dose levels”.
